# Measured values reported in US20170209375A1, “NANOPARTICLE FORMULATIONS OF LOW-WATER SOLUBILITY ACTIVES” (Bend Research, Inc., priority 2014, published 2017).
# Values joined by “and” are separate entries in the source; they are usually repeats but may differ in a detail not shown here. Equal values may be shown once. Where a name gives a salt, the structure may show the parent alone. Read-outs that look alike come from different tables or passages of the source.
# Tests used:
# [1] = cited from earlier work
# [2] = pKa of counterions and active agents; assay type: physicochemical; conditions: active vs its counterion; read-out: difference between the pKa of the active and the counterion
# [3] = pH 6.5; cited from earlier work
# [4] = counterion, first value of the cell, some values marked estimated
SMILES,"pKa [1, 4]",also measured
"Cc1c(C)c2c(c(C)c1OP(=O)(O)O)CCC(C)(CCCC(C)CCCC(C)CCCC(C)C)O2 (stereo not drawn) [Tocopherol phosphate, tocopherol phosphate]",<2 estimated,–
"c1ccc(CNCCNCc2ccccc2)cc1 [N,N′-dibenzylethylene diamine]",6.2,–
"C#Cc1cccc(Nc2ncnc3cc(OCCOC)c(OCCOC)cc23)c1 [Erlotinib, N-(3-ethynylphenyl)-6,7-bis(2-methoxyethoxy) quinazolin-4-amine, reference compound]",–,pKa [2]: ≥ 4.4; solubility in phosphate buffered saline [3]: 1 µg/mL; pKa ([1]; active agent): 5.42 and 5.4
c1ccc(CCNCc2ccccc2)cc1 [N-(benzyl)-2-phenylethan-1-amine],9.4,–
"Cc1c(C)c2c(c(C)c1OS(=O)(=O)O)CCC(C)(CCCC(C)CCCC(C)CCCC(C)C)O2 (stereo not drawn) [Tocopherol sulfate, tocopherol sulfate]",<1 estimated,–
"O=S(=O)(O)c1ccc2ccccc2c1 [2-Naphthalenesulfonate, 2-naphthalene sulfonate]",0.17,–
"CC(C)(C)c1ccc2c(S(=O)(=O)O)c(C(C)(C)C)ccc2c1 [2,6-di-tert-butylnaphthalene-1-sulfonate]",−2.48,–
"CC(C)(C)c1ccc2c(S(=O)(=O)O)c(C(C)(C)C)ccc2c1S(=O)(=O)O [2,6-di-tert-butylnaphthalene-1,5-disulfonate]",−2.32,"pKa ([1]; counterion, second value printed in the same cell): −3.05"
"CC(C)c1ccc2c(c1)CC[C@H]1[C@](C)(CNCCNC[C@]3(C)CCC[C@]4(C)c5ccc(C(C)C)cc5CC[C@@H]34)CCC[C@]21C [N^1,N^2-bis(((1 R,4aS,10aR)-7-isopropyl-1,4a-dimethyl-1,2,3,4,4a,9,10,10a-octahydrophenanthren-1-yl)methyl)ethane-1,2-diamine]",6.6,–
"COc1ccc(-c2ccc3cc(C(=O)O)ccc3c2)cc1C12CC3CC(CC(C3)C1)C2 [Adapalene, reference compound]",–,pKa [2]: 5.2; pKa ([1]; active agent): 4.2
"O=C(CC(C(=O)OC1CCCCC1)S(=O)(=O)O)OC1CCCCC1 (stereo not drawn) [1,4-dicyclohexyloxy-1,4-dioxobutane-2-sulfonate]",<1 estimated,–
"CC(C)CCC[C@@H](C)[C@H]1CC[C@H]2[C@@H]3CC=C4CC(OS(=O)(=O)O)CC[C@]4(C)[C@H]3CC[C@]12C (stereo partly drawn) [Cholesteryl sulfate, cholesteryl sulfate]",<1 estimated,–
"CC(C)CCOC(=O)CC(C(=O)OCCC(C)C)S(=O)(=O)O (stereo not drawn) [1,4-diisopentyloxy-1,4-dioxobutane-2-sulfonate]",<1 estimated,–
"CC(C)CCC[C@@H](C)[C@H]1CC[C@H]2[C@@H]3CC=C4C[C@@H](OP(=O)(O)O)CC[C@]4(C)[C@H]3CC[C@]12C [Cholesteryl phosphate, cholesteryl phosphate]",<2 estimated,–
